Laboratory results from BigSolDB 2.1.

O=C(O)CCCCCCCCCCC(=O)O
solubility (mole fraction)
Details | 288.15 K | 293.15 K | 298.15 K | 303.15 K | 308.15 K | 313.15 K | 318.15 K | 323.15 K | 328.15 K
in acetic acid | 0.00316 | 0.00434 | 0.00581 | 0.00776 | 0.0103 | 0.0136 | 0.0179 | 0.0235 | 0.0306
in acetone | 0.00286 | 0.00402 | 0.00543 | 0.00757 | 0.00995 | 0.0133 | 0.0178 | 0.0238 | 0.0318
in ethanol | 0.00793 | 0.0105 | 0.0138 | 0.0181 | 0.0236 | 0.0305 | 0.0394 | 0.0506 | 0.0648
in ethyl acetate | 0.00115 | 0.00165 | 0.00231 | 0.00327 | 0.00461 | 0.00638 | 0.00879 | 0.0121 | 0.0165
